These results are taken from US9067977B2, “Peptides derivatized with A-B-C-D- and their therapeutical use” (Novo Nordisk A/S, priority 2007, dated 2015).

SMILES strings stand for the structures.

This assay addresses human serum albumin (HSA) (Homo sapiens, UniProt P02768). The experiment in a line: Albumin binding affinity, competition scintillation proximity assay.

human serum albumin (HSA), sequence (P02768 25-609): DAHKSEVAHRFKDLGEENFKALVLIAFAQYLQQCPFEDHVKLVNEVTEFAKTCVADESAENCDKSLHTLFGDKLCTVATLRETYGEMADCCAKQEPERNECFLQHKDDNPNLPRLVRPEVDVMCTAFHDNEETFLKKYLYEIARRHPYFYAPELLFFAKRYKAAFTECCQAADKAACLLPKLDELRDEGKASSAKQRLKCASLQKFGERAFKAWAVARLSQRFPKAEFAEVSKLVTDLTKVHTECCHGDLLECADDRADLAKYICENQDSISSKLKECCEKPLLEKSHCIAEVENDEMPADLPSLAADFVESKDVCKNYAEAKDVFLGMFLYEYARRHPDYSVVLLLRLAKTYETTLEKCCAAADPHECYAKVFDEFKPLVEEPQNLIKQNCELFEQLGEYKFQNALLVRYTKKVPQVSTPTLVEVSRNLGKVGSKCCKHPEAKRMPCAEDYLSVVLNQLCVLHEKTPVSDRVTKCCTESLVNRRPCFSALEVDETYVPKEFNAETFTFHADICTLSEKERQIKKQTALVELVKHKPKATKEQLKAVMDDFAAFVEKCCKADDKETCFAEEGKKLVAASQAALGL
Description: Streptavidin-SPA beads (GE Healthcare RPNQ0009) were incubated with biotinylated HSA for 5 hours. The beads were washed with buffer to remove unbound HSA. […] After 20 hours of gentle rocking at room temperature the plates were centrifuged and counted on a TopCounter.

On to `CC[C@H](C)[C@H](NC(=O)[C@H](Cc1ccccc1)NC(=O)[C@H](CCC(=O)O)NC(=O)[C@H](CCCNC(=N)N)NC(=O)[C@H](C)NC(=O)[C@H](C)NC(=O)[C@H](CCC(N)=O)NC(=O)CNC(=O)[C@H](CCC(=O)O)NC(=O)[C@H](CC(C)C)NC(=O)[C@H](Cc1ccc(O)cc1)NC(=O)[C@H](CO)NC(=O)[C@H](CO)NC(=O)[C@@H](NC(=O)[C@H](CC(=O)O)NC(=O)[C@H](CO)NC(=O)[C@@H](NC(=O)[C@H](Cc1ccccc1)NC(=O)[C@@H](NC(=O)CNC(=O)[C@H](CCC(=O)O)NC(=O)[C@H](C)NC(=O)CCc1c[nH]cn1)[C@@H](C)O)[C@@H](C)O)C(C)C)C(=O)N[C@@H](C)C(=O)N[C@@H](Cc1c[nH]c2ccccc12)C(=O)N[C@@H](CC(C)C)C(=O)N[C@H](C(=O)N[C@@H](CCCNC(=N)N)C(=O)NCC(=O)N[C@@H](CCCNC(=N)N)C(=O)NCC(=O)N[C@@H](CCCCNC(=O)COCCOCCNC(=O)COCCOCCNC(=O)CC[C@H](NC(=O)C1CCN(C(=O)CCCCCCCCCCCCCCCCCCC(=O)O)CC1)C(=O)O)C(=O)O)C(C)C` [Example 59, [DesaminoHis7,Arg26,34]-GLP-1 (7-37)-Lys(2-{2-[2-(2-{2-[2-((S)-4-Carboxy-4-{[1-(19-carboxynonadecanoyl)piperidine-4-carbonyl]amino}butyrylamino)ethoxy]ethoxy}acetylamino)ethoxy]ethoxy}acetyl) peptide], for which the EC50 – broadly, the concentration giving half of the maximal effect – is greater than 2000 nM. Turning to `CC[C@H](C)[C@H](NC(=O)[C@H](Cc1ccccc1)NC(=O)[C@H](CCC(=O)O)NC(=O)[C@H](CCCNC(=N)N)NC(=O)[C@H](C)NC(=O)[C@H](C)NC(=O)[C@H](CCC(N)=O)NC(=O)CNC(=O)[C@H](CCC(=O)O)NC(=O)[C@H](CC(C)C)NC(=O)[C@H](Cc1ccc(O)cc1)NC(=O)[C@H](CO)NC(=O)[C@H](CO)NC(=O)[C@@H](NC(=O)[C@H](CC(=O)O)NC(=O)[C@H](CO)NC(=O)[C@@H](NC(=O)[C@H](Cc1ccccc1)NC(=O)[C@@H](NC(=O)CNC(=O)[C@H](CCC(=O)O)NC(=O)[C@H](C)NC(=O)CCc1c[nH]cn1)[C@@H](C)O)[C@@H](C)O)C(C)C)C(=O)N[C@@H](C)C(=O)N[C@@H](Cc1c[nH]c2ccccc12)C(=O)N[C@@H](CC(C)C)C(=O)N[C@H](C(=O)N[C@@H](CCCNC(=N)N)C(=O)NCC(=O)N[C@@H](CCCNC(=N)N)C(=O)N[C@@H](CCCCNC(=O)COCCOCCNC(=O)COCCOCCNC(=O)CC[C@H](NC(=O)C1CCN(C(=O)CCCCCCCCCCCCCCCCCCC(=O)O)CC1)C(=O)O)C(=O)O)C(C)C` [Example 60, N-epsilon37-(2-{2-[2-(2-{2-[2-((S)-4-Carboxy-4-{[1-(19-carboxynonadecanoyl)piperidine-4-carbonyl]amino}butyrylamino)ethoxy]ethoxy}acetylamino)ethoxy]ethoxy}acetyl) [DesaminoHis7,Arg26,Arg34,Lys37]GLP-1-(7-37)], the EC50 was in the range of 300 to 800 nM.
